This note sets out measurements from patent US20110306639A1, “HYDROCARBYLIDENE NITROHYDROZINECARBOXIMIDAMIDES AND A METHOD FOR MAKING THE SAME, AS WELL AS THEIR USES AS AN INSECTICIDE” (priority 2008, published 2011).

One data set concerns asparagus caterpillar. The settings on record: in vivo.
The next data set concerns myzus persicae. The settings on record: in vivo.

Structures are written as SMILES. Like-named read-outs stand apart in the source and are kept apart here.

For the compound `C#CCNC(=N[N+](=O)[O-])NN=CC=C` [Compound 43], the “mortality(%) asparagus caterpillar (500 μg/mL)” value in the data set with asparagus caterpillar amounted to 20%. Moreover, the “mortality(%) Helicoverpa armigera (500 μg/mL)” value in the data set on Helicoverpa armigera (500 μg/mL, 48 hours) is reported as 40%.
In the case of `C#CCNC(=N[N+](=O)[O-])NN=Cc1ccccc1Cl` [Compound 94], the “mortality(%) myzus persicae (600 μg/mL)” value with myzus persicae turned out to be 31.2%. In addition, in the data set with asparagus caterpillar, the “mortality(%) asparagus caterpillar (500 μg/mL)” value was 60%. In the data set on Helicoverpa armigera (in vivo), the “mortality(%) Helicoverpa armigera (500 μg/mL)” value is 50%.
Turning to `CC=CC=NNC(=N[N+](=O)[O-])NCc1ccccc1` [Compound 37], the “mortality(%) asparagus caterpillar (500 μg/mL)” value with asparagus caterpillar came to 20%. Also, the “mortality(%) Helicoverpa armigera (500 μg/mL)” value with Helicoverpa armigera (500 μg/mL, 48 hours) is reported as 70%.
As to `CCCCNC(=N[N+](=O)[O-])NN=CC(C)C` [Compound 4], the “mortality(%) myzus persicae (600 μg/mL)” value in the data set on myzus persicae is listed as 31.6%. Also, in the data set with asparagus caterpillar, the “mortality(%) asparagus caterpillar (500 μg/mL)” value is on record as 20%. For the same compound, the “mortality(%) Helicoverpa armigera (500 μg/mL)” value in the data set with Helicoverpa armigera (500 μg/mL, 48 hours) amounted to 10%.
For `C#CCNC(=N[N+](=O)[O-])NN=CCCC` [Compound 28], in that order: 11.4%, 70% and 60%.
On the same counts, the results for `COc1ccccc1C=NNC(=N[N+](=O)[O-])NCc1ccccc1` [Compound 75] are 92.8%, 90% and 30%.
For `CC=CC=NNC(=N[N+](=O)[O-])NCCC` [Compound 33], in that order: 19.5%, 70% and 70%.
In the case of `C=CC=NNC(=N[N+](=O)[O-])NCC=C` [Compound 42], the “mortality(%) myzus persicae (600 μg/mL)” value with myzus persicae came to 37.1%. In the data set with asparagus caterpillar, the “mortality(%) asparagus caterpillar (500 μg/mL)” value came out at 0%. Also, the “mortality(%) Helicoverpa armigera (500 μg/mL)” value in the data set with Helicoverpa armigera (500 μg/mL, 48 hours) worked out at 20%.
For `CCC=NNC(=N[N+](=O)[O-])NCC` [Compound 9], in that order: 54.2%, 20% and 60%.
For `CCCC=NNC(=N[N+](=O)[O-])NCC` [Compound 24], in that order: 4.7%, 0% and 40%.
For `C=CCNC(=N[N+](=O)[O-])NN=CCCC` [Compound 27], in that order: 65.1%, 40% and 30%.
For `CC=CC=NNC(=N[N+](=O)[O-])NCCCC` [Compound 34], the “mortality(%) asparagus caterpillar (500 μg/mL)” value with asparagus caterpillar was 60%. In the data set with Helicoverpa armigera (500 μg/mL, 48 hours), the “mortality(%) Helicoverpa armigera (500 μg/mL)” value was determined as 40%.
Consider `C=CC=NNC(=N[N+](=O)[O-])NCCCC` [Compound 41], for which the “mortality(%) myzus persicae (600 μg/mL)” value in the data set on myzus persicae is reported as 74.7%. For the same compound, in the data set with asparagus caterpillar, the “mortality(%) asparagus caterpillar (500 μg/mL)” value turned out to be 10%. In addition, the “mortality(%) Helicoverpa armigera (500 μg/mL)” value in the data set on Helicoverpa armigera (500 μg/mL, 48 hours) is 20%.
Turning to `CNC(=N[N+](=O)[O-])NN=CC=C(C)CCC=C(C)C` [Compound 16], the “mortality(%) myzus persicae (600 μg/mL)” value in the data set with myzus persicae is 31.4%. Moreover, the “mortality(%) asparagus caterpillar (500 μg/mL)” value in the data set on asparagus caterpillar is 70%. Moreover, in the data set with Helicoverpa armigera (in vivo), the “mortality(%) Helicoverpa armigera (500 μg/mL)” value was 30%.
For `C#CCNC(=N[N+](=O)[O-])NN=Cc1ccc(F)cc1` [Compound 102], in that order: 31.6%, 50% and 50%.
Turning to `C#CCNC(=N[N+](=O)[O-])NN=CC=CC` [Compound 36], the “mortality(%) myzus persicae (600 μg/mL)” value with myzus persicae was determined as 35.0%. For the same compound, the “mortality(%) asparagus caterpillar (500 μg/mL)” value in the data set on asparagus caterpillar turned out to be 50%. Moreover, the “mortality(%) Helicoverpa armigera (500 μg/mL)” value with Helicoverpa armigera (500 μg/mL, 48 hours) was determined as 30%.
On the same counts, the results for `C=CCNC(=N[N+](=O)[O-])NN=Cc1ccccc1OC` [Compound 76] are 3.4%, 80% and 40%.
For `CCCCCCC=NNC(=N[N+](=O)[O-])NCCC` [Compound 45], in that order: 16.9%, 20% and 20%.
Consider `C#CCNC(=N[N+](=O)[O-])NN=CC=C(C)CCC=C(C)C` [Compound 21], for which, in the data set on myzus persicae, the “mortality(%) myzus persicae (600 μg/mL)” value is 12.8%. Besides, the “mortality(%) asparagus caterpillar (500 μg/mL)” value with asparagus caterpillar stood at 30%. Also, in the data set with Helicoverpa armigera (in vivo), the “mortality(%) Helicoverpa armigera (500 μg/mL)” value amounted to 20%.
Consider `CCCC=NNC(=N[N+](=O)[O-])NCCC` [Compound 25], for which the “mortality(%) asparagus caterpillar (500 μg/mL)” value with asparagus caterpillar is on record as 10%. The “mortality(%) Helicoverpa armigera (500 μg/mL)” value with Helicoverpa armigera (500 μg/mL, 48 hours) came out at 50%.
As to `C=CCNC(=N[N+](=O)[O-])NN=CCCCC` [Compound 53], the “mortality(%) myzus persicae (600 μg/mL)” value with myzus persicae is recorded as 81.0%. For the same compound, the “mortality(%) asparagus caterpillar (500 μg/mL)” value with asparagus caterpillar is reported as 80%. The “mortality(%) Helicoverpa armigera (500 μg/mL)” value in the data set with Helicoverpa armigera (500 μg/mL, 48 hours) worked out at 40%.
For `C=CC=NNC(=N[N+](=O)[O-])NCc1ccccc1` [Compound 44], in that order: 45.8%, 0% and 30%.
Take `CCCNC(=N[N+](=O)[O-])NN=Cc1ccc(F)cc1` [Compound 100]: the “mortality(%) myzus persicae (600 μg/mL)” value in the data set with myzus persicae was found to be 20.3%. Also, the “mortality(%) asparagus caterpillar (500 μg/mL)” value in the data set with asparagus caterpillar was 90%. In the data set with Helicoverpa armigera (in vivo), the “mortality(%) Helicoverpa armigera (500 μg/mL)” value is recorded as 20%.
For `CCCCC=NNC(=N[N+](=O)[O-])NCc1ccccc1` [Compound 55], the “mortality(%) myzus persicae (600 μg/mL)” value in the data set on myzus persicae is 49.2%. The “mortality(%) asparagus caterpillar (500 μg/mL)” value in the data set with asparagus caterpillar was found to be 30%. In addition, in the data set with Helicoverpa armigera (500 μg/mL, 48 hours), the “mortality(%) Helicoverpa armigera (500 μg/mL)” value is reported as 10%.
Turning to `CCC=NNC(=N[N+](=O)[O-])NCCC` [Compound 10], the “mortality(%) myzus persicae (600 μg/mL)” value in the data set with myzus persicae amounted to 78.3%. The “mortality(%) asparagus caterpillar (500 μg/mL)” value in the data set on asparagus caterpillar was 20%. Further, in the data set on Helicoverpa armigera (500 μg/mL, 48 hours), the “mortality(%) Helicoverpa armigera (500 μg/mL)” value was found to be 80%.
On the same counts, the results for `CC=CC=NNC(=N[N+](=O)[O-])NC` [Compound 31] are 42.6%, 10% and 60%.
`CCCNC(=N[N+](=O)[O-])NN=Cc1ccc(OCC)c(OC)c1` [Compound 96]: the “mortality(%) myzus persicae (600 μg/mL)” value in the data set with myzus persicae is recorded as 73.4%. Further, in the data set on asparagus caterpillar, the “mortality(%) asparagus caterpillar (500 μg/mL)” value turned out to be 50%. Besides, in the data set with Helicoverpa armigera (in vivo), the “mortality(%) Helicoverpa armigera (500 μg/mL)” value was found to be 20%.
For `CCCNC(=N[N+](=O)[O-])NN=Cc1ccc(N(C)C)cc1` [Compound 70], the “mortality(%) asparagus caterpillar (500 μg/mL)” value in the data set on asparagus caterpillar is reported as 80%. In the data set on Helicoverpa armigera (in vivo), the “mortality(%) Helicoverpa armigera (500 μg/mL)” value is recorded as 40%.
As to `C=CC=NNC(=N[N+](=O)[O-])NCCC` [Compound 40], the “mortality(%) myzus persicae (600 μg/mL)” value with myzus persicae was 8.3%. Further, the “mortality(%) asparagus caterpillar (500 μg/mL)” value in the data set with asparagus caterpillar was 20%. Further, in the data set with Helicoverpa armigera (500 μg/mL, 48 hours), the “mortality(%) Helicoverpa armigera (500 μg/mL)” value is 30%.
For `CCC=NNC(=N[N+](=O)[O-])NCCCC` [Compound 11], in that order: 1.5%, 50% and 50%.
For `CCCNC(=N[N+](=O)[O-])NN=CC(C)C` [Compound 3], in that order: 14.4%, 20% and 30%.
For `C=CCNC(=N[N+](=O)[O-])NN=Cc1ccc(N(C)C)cc1` [Compound 72], the “mortality(%) myzus persicae (600 μg/mL)” value in the data set on myzus persicae turned out to be 23.6%. In the data set on asparagus caterpillar, the “mortality(%) asparagus caterpillar (500 μg/mL)” value was 50%. In the data set on Helicoverpa armigera (in vivo), the “mortality(%) Helicoverpa armigera (500 μg/mL)” value was determined as 50%.
Take `C#CCNC(=N[N+](=O)[O-])NN=CCCCCCC` [Compound 48]: the “mortality(%) myzus persicae (600 μg/mL)” value with myzus persicae is 13.0%. Besides, the “mortality(%) asparagus caterpillar (500 μg/mL)” value in the data set on asparagus caterpillar amounted to 0%. Besides, the “mortality(%) Helicoverpa armigera (500 μg/mL)” value in the data set with Helicoverpa armigera (500 μg/mL, 48 hours) worked out at 30%.
With `C#CCNC(=N[N+](=O)[O-])NN=CCC` [Compound 13], the “mortality(%) myzus persicae (600 μg/mL)” value in the data set on myzus persicae is on record as 5.0%. Besides, the “mortality(%) asparagus caterpillar (500 μg/mL)” value with asparagus caterpillar amounted to 0%. Further, the “mortality(%) Helicoverpa armigera (500 μg/mL)” value in the data set with Helicoverpa armigera (500 μg/mL, 48 hours) was 50%.
For `CC(C)C=NNC(=N[N+](=O)[O-])NCc1ccccc1` [Compound 7], in that order: 18.4%, 50% and 40%.
For the compound `CCCCCCC=NNC(=N[N+](=O)[O-])NCCCC` [Compound 46], the “mortality(%) asparagus caterpillar (500 μg/mL)” value with asparagus caterpillar was found to be 30%. In addition, the “mortality(%) Helicoverpa armigera (500 μg/mL)” value with Helicoverpa armigera (500 μg/mL, 48 hours) stood at 20%.
Consider `CCCNC(=N[N+](=O)[O-])NN=Cc1ccccc1OC` [Compound 73], for which the “mortality(%) myzus persicae (600 μg/mL)” value in the data set with myzus persicae came to 20.2%. Also, the “mortality(%) asparagus caterpillar (500 μg/mL)” value in the data set on asparagus caterpillar was determined as 70%. For the same compound, in the data set on Helicoverpa armigera (500 μg/mL, 48 hours), the “mortality(%) Helicoverpa armigera (500 μg/mL)” value amounted to 50%.
Take `C=CC=NNC(=N[N+](=O)[O-])NCC` [Compound 39]: in the data set on asparagus caterpillar, the “mortality(%) asparagus caterpillar (500 μg/mL)” value came out at 40%. Also, in the data set with Helicoverpa armigera (500 μg/mL, 48 hours), the “mortality(%) Helicoverpa armigera (500 μg/mL)” value was determined as 20%.
For `C=CCNC(=N[N+](=O)[O-])NN=CCC` [Compound 12], in that order: 40% and 30%.
On the same counts, the results for `CCCC=NNC(=N[N+](=O)[O-])NCc1ccccc1` [Compound 29] are 50% and 60%.
Turning to `CN(C)c1ccc(C=NNC(=N[N+](=O)[O-])NCc2ccccc2)cc1` [Compound 71], in the data set on asparagus caterpillar, the “mortality(%) asparagus caterpillar (500 μg/mL)” value is 90%. Also, in the data set with Helicoverpa armigera (in vivo), the “mortality(%) Helicoverpa armigera (500 μg/mL)” value is listed as 30%.
On the same counts, the results for `COc1ccccc1C=NNC(=N[N+](=O)[O-])NCc1ccc(Cl)nc1` [Compound 109] are 90% and 40%.
On the same counts, the results for `O=[N+]([O-])N=C(NCc1ccc(Cl)nc1)NN=Cc1ccc(Cl)cc1` [Compound 108] are 50% and 50%.
For `CCCNC(=N[N+](=O)[O-])NN=CC=C(C)CCC=C(C)C` [Compound 18], in that order: 60% and 50%.
